In patent publication US9938292B2 (GUANGDONG ZHONGSHENG PHARMACEUTICAL CO., LTD, priority 2014, dated 2018) one finds IC50 data, which are given here for 35 molecules.

Structures are written as SMILES. Bounds are passed on as bounds.

The subject of one assay is Hedgehog signaling pathway. Put plainly: Gli-Luc luciferase reporter gene assay in C3H10T1/2/Gli-Luc cells under Shh-N stimulation. Format: cell-based. Conditions: 24 h, luciferase RLU, read-out: biological activity: IC50 of the inhibitory activities of compounds on the hedgehog pathway. An excerpt: The luciferase (Gli-Luc) reporter gene with Gli response element was transfected into C3H10T1/2 cells, under Shh-N stimulation conditions, determine the Hedgehog signaling pathway inhibitors through the detection of gene expression in cell activity report. In this study, we evaluated the inhibitory effects of compounds on Hedgehog signaling pathway in the IC50 value of the compound as an index.
Cell lines: C3H10T1/2/Gli-Luc stable cell line • C3H10T1/2/Gli-Luc Cell culture medium (DMEM/high glucose HyClone, #SH30022.01B; 10% serum Hyclone, #SV30087; 0.4% Hygromycin B Roche, #13398200) • 0.25% Trypsin-EDTA (Gibco, #25200)
Shh-N, HEK293/SHH-N stable cell culture supernatant
Inoculate the logarithmic growth phase of C3H10T1/2/Gli-Luc cells into a 96-well culture plate with 20000 cells per well, cells were cultured in a 37° C., 5% CO2 incubator overnight. The next day, the compounds were diluted in the following ways: the positive compound GDC0449 (1 mM) and the compounds (1 mM) to be measured were serially diluted to 7 concentrations by DMSO according to 1:3 and 1:10 respectively, the eighth is for DMSO control, and then diluted with fresh medium 100 times. The medium of the cells cultured overnight was removed, 80 μL fresh culture medium was added per well, then 20 μL gradiently diluted positive compound and compounds to be measured and 100 μL 30 nM Shh-N containing conditioned medium were added, each concentration repeated 2 wells, at the same time, positive and negative reference well were set (i.e. Shh Ctrl: 80 μL fresh medium+20 μL 1% DMSO containing medium+100 μL 30 nM Shh-N containing conditioned medium; Unstimulated Ctrl: 180 μL fresh medium+20 μL 1% DMSO containing medium), cells were cultured in the incubator for further 24 h.
Intracellular luciferase activity detection: take the cells out of 96-well plate, discard the culture medium, the cells were washed with PBS twice, then each well added with 20 μL lysate (Promega E1531), oscillate pyrolysis at room temperature for 30 min. 5 μL cell lysates were transferred to 384-well plate (Greiner 781074), then each well was added with 25 μL luciferase reaction liquid (Promega E1501), after rapid mixed, immediately placed into the VarioSkan Flash multi-function reading instrument to read the relative light units (RLU) value.
Data analysis: using Prism's GraphPad 5 for data analysis. RLU reading to the logarithmic mapping of compound concentration on behalf of luciferase activity, and then curve fitting using the following equation to give IC50 value, Y (RLU)=minimum+(maximum−minimum)/(1+10^(log of compound concentration−Log IC50)).
What is called IC50 is the concentration at which inhibition is half-maximal. For the molecule `Cc1cn(-c2ccc(N3C[C@@H](C)N(C(=O)c4ccccc4)[C@H](C)C3)cc2)c(=O)c2cccc(-c3ccc(C#N)cc3)c12` [Embodiment 21], the IC50 is 0.1 to 0.5 µM.
The same measure, in the same setting: the result for `COc1c(-c2cnc(N3C[C@@H](C)O[C@@H](C)C3)cn2)cnc2c(-c3ccc(C#N)cc3)cccc12` [Embodiment 177] reads ≤ 0.05 µM.

The assay is the same for the next values; noted with them: Mus musculus, C3H 10T1/2, 24 h, luciferase RLU, read-out: biological activity: IC50 of the inhibitory activities of compounds on the hedgehog pathway.
For the molecule `Cc1cn(-c2ccc(N3C[C@H](C)C[C@@H](C)C3)cc2)c(=O)c2cccc(-c3ccc(C#N)cc3)c12` [Embodiment 1, 4-(2-(4-((3R,5R)-3,5-dimethylpiperidin-1-yl)phenyl)-4-methyl-1-oxo-1,2-dihydroisoquinolin-5-yl)benzonitrile], the IC50 was 0.1 to 0.5 µM.
Still for that read-out and setting: next, `CC(C)(O)c1ccc(N2CC3(C2)CN(c2cnc4c(-c5ccc(C#N)cc5)cccc4c2C2CC2)C3)nc1` [Embodiment 255, 4-(4-cyclopropyl-3-(6-(5-(2-hydroxypropan-2-yl)pyridin-2-yl)-2,6-diazaspiro[3.3]heptan-2-yl)quinolin-8-yl)benzonitrile]: 0.1 to 0.5 µM; `COc1c(-c2ccc(N3Cc4nnc(C(F)(F)F)n4C(C)C3)cc2)cnc2c(-c3ccc(C#N)cc3)cccc12` (centres unmarked) [Embodiment 190, 4-(4-methoxy-3-(4-(5-methyl-3-(trifluoromethyl)-5,6-dihydro-[1,2,4]triazolo[4,3-a]pyrazin-7(8H)-yl)phenyl)quinolin-8-yl)benzonitrile]: ≤ 0.05 µM.
On to `CCC(=O)N1[C@H](C)CN(c2ccc(-c3cnc4c(-c5ccc(C#N)cc5)cccc4c3OC)cc2)C[C@@H]1C` [Embodiment 180, 4-(3-(4-((3S, 5R)-3,5-dimethyl-4-propionylpiperazin-1-yl)phenyl)-4-methoxyquinolin-8-yl)benzonitrile], for which the IC50 is ≤ 0.05 µM.
The same measure, in the same setting: the result for `COc1c(N2CCN(c3ccc(C(C)(C)O)cn3)CC2)cnc2c(-c3ccc(C#N)cc3)cccc12` [Embodiment 220, 4-(3-(4-(5-(2-hydroxypropan-2-yl)pyridin-2-yl)piperazin-1-yl)-4-methoxyquinolin-8-yl)benzonitrile] reads ≤ 0.05 µM.
`N#Cc1ccc(-c2cccc3c(C4CC4)c(N4CCN(c5cc[nH]c(=O)c5)CC4)cnc23)cc1` [Embodiment 271, 4-(4-cyclopropyl-3-(4-(2-oxo-1,2-dihydropyridin-4-yl)piperazin-1-yl)quinolin-8-yl) benzonitrile]: the IC50 lay in the range of 0.1 to 0.5 µM.
In the case of `COc1c(-c2ccc(N3C[C@@H](C)O[C@@H](C)C3)cc2)cnc2c(-c3ccc(C(F)(F)F)nc3)cccc12` [Embodiment 106], the IC50 fell in the range of 0.05 to 0.1 µM.
Take `Cc1cn(-c2ccc(N3C[C@@H](C)N(C(=O)c4ccccc4)[C@H](C)C3)cc2)c(=O)c2cccc(-c3ccc(C#N)cc3)c12` [Embodiment 14, 4-(2-(4-((3R,5R)-4-benzoyl-3,5-dimethylpiperazin-1-yl)phenyl)-4-methyl-1-oxo-1,2-dihydroisoquinolin-5-yl)benzonitrile]: the IC50 was 0.05 to 0.1 µM.
Same read-out and setting: the result for `Cc1cn(-c2ccc(N3C[C@@H](C)O[C@@H](C)C3)cc2)c(=O)c2ccnc(-c3ccc(C(F)(F)F)cc3)c12` [Embodiment 82] reads 1 to 5 µM; that for `Cc1cn(-c2ccc(N3C[C@@H](C)O[C@@H](C)C3)cc2)c(=O)c2ccnc(-c3ccc(OC(F)(F)F)cc3)c12` [Embodiment 83], 1 to 5 µM; that for `C[C@@H]1CN(c2ccc(-c3cnc4c(-c5ccc(C#N)cc5)cccc4c3)cc2)C[C@H](C)O1` [Embodiment 127, 4-(3-(4-((2S,6R)-2,6-dimethylmorpholino)phenyl)quinolin-8-yl)benzonitrile], 0.1 to 0.5 µM.
`COc1c(-c2ccc(N3C[C@@H](C)O[C@@H](C)C3)cc2)cnc2c1CCCC2(OC)c1ccc(C#N)cc1` (stereo partly drawn) [Embodiment 157, 4-(3-(4-((2S,6R)-2,6-dimethylmorpholino)phenyl)-4,8-dimethoxy-5,6,7,8-tetrahydroquinolin-8-yl)benzonitrile]: the IC50 is 1 to 5 µM.
With `COc1c(-c2ccc(N3C[C@@H](C)O[C@@H](C)C3)nc2)cnc2c(-c3ccnn3C)cccc12` [Embodiment 165], the IC50 is 0.1 to 0.5 µM.
Still for that read-out and setting: the result for `C[C@@H]1CN(c2ccc(NC(=O)c3cnc4c(-c5ccc(C#N)cc5)cccc4c3C3CC3)cn2)C[C@H](C)O1` [Embodiment 244, 8-(4-cyanophenyl)-4-cyclopropyl-N-(6-((2S,6R)-2,6-dimethylmorpholino)pyridin-3-yl) quinoline-3-carboxamide] reads ≤ 0.05 µM; that for `Cc1cn(-c2ccc(N3CC(C)OC(C)C3)cc2)c(=O)c2cccc(-c3ccc(C#N)cc3)c12` (centres unmarked) [Embodiment 2], 0.1 to 0.5 µM.
On the same count and under the same terms, next, `Cc1cn(-c2ccc(N3C[C@@H](C)O[C@@H](C)C3)cc2)c(=O)c2cccc(-c3ccc(F)cc3)c12` [Embodiment 50]: 0.5 to 1 µM; `COc1c(N2CCN(C(C)=O)CC2)cnc2c(-c3ccc(C#N)cc3)cccc12` [Embodiment 215]: 0.1 to 0.5 µM.
On the same count and under the same terms, the result for `COc1c(-c2ccc(N3C[C@@H](C)O[C@@H](C)C3)cc2)cnc2c(-c3ccc(C(F)(F)F)cc3)cccc12` [Embodiment 89, (2R,6S)-4-(4-(4-methoxy-8-(4-(trifluoromethyl)phenyl)quinolin-3-yl)phenyl)-2,6-dimethylmorpholine] reads ≤ 0.05 µM; that for `COc1c(-c2ccc(N3C[C@@H](C)O[C@@H](C)C3)nc2)cnc2c(-c3ccc(C)nc3)cccc12` [Embodiment 163], 0.1 to 0.5 µM; that for `COc1c(N2CCN(c3ccc(C(C)(C)O)c(C(F)(F)F)n3)CC2)cnc2c(-c3ccc(C#N)cc3)cccc12` [Embodiment 222], ≤ 0.05 µM.
Take `COc1c(-c2ccc(N3C[C@@H](C)O[C@@H](C)C3)c(F)c2)cnc2c(-c3ccc(C#N)cc3)cccc12` [Embodiment 172]: the IC50 is ≤ 0.05 µM.
On the same count and under the same terms, the result for `COc1c(N2CCC(N3CCCC3)CC2)cnc2c(-c3ccc(C#N)cc3)cccc12` [Embodiment 268, 4-(4-methoxy-3-(4-(pyrrolidin-1-yl)piperidin-1-yl)quinolin-8-yl)benzonitrile] reads 0.1 to 0.5 µM; that for `Cc1cn(-c2ccc(N3C[C@@H](C)O[C@@H](C)C3)nc2)c(=O)c2cccc(-c3ccc(C#N)cc3)c12` [Embodiment 66], 0.5 to 1 µM; that for `Cc1cn(-c2ccc(N3C[C@@H](C)O[C@@H](C)C3)cc2)c(=O)c2cccc(-c3ccoc3)c12` [Embodiment 43, 2-(4-((2S,6R)-2,6-dimethylmorpholino)phenyl)-5-(furan-3-yl)-4-methylisoquinolin-1(2H)-one], 1 to 5 µM.
In the case of `COC(=O)N1[C@H](C)CN(c2ccc(-n3cc(C)c4c(-c5ccc(C#N)cc5)cccc4c3=O)cc2)C[C@H]1C` [Embodiment 19], the half-maximal inhibitory concentration (IC50) was 0.1 to 0.5 µM.
The same measure, in the same setting: next, `Cc1cn(-c2ccc(N3CC(C)N(C(=O)C(C)(C)C)C(C)C3)cc2)c(=O)c2cccc(-c3ccc(C#N)cc3)c12` (centres unmarked) [Embodiment 25]: 0.05 to 0.1 µM; `Cc1cn(-c2ccc(N3CC(C)N(S(=O)(=O)c4ccccc4)C(C)C3)cc2)c(=O)c2cccc(-c3ccc(C#N)cc3)c12` (centres unmarked) [Embodiment 32]: 0.1 to 0.5 µM; `COc1c(-c2ccc(N3C[C@@H](C)O[C@@H](C)C3)cc2)cnc2c(-c3nc(C#N)cs3)cccc12` [Embodiment 115, 2-(3-(4-((2S,6R)-2,6-dimethylmorpholino)phenyl)-4-methoxyquinolin-8-yl)thiazole-4-carbonitrile]: 1 to 5 µM.
On the same count and under the same terms, the result for `COc1c(N2C3CCC2CC(N2C[C@@H](C)O[C@@H](C)C2)C3)cnc2c(-c3ccc(C#N)cc3)cccc12` (some centres unmarked) [Embodiment 230, 4-(3-(3-(2,6-dimethylmorpholino-4-yl)-8-azabicyclo[3.2.1]octan-8-yl)-4-methoxyquinolin-8-yl)benzonitrile] reads 0.1 to 0.5 µM.
On the same count and under the same terms, the result for `C[C@@H]1CN(c2ccc(-n3ccc4c(-c5ccc(C(F)(F)F)cc5)cccc4c3=O)cc2)C[C@H](C)O1` [Embodiment 74] reads 1 to 5 µM.
As for `C[C@@H]1CN(c2ccc(-c3cnc4c(-c5ccc(C#N)cc5)cccc4c3OCCN(C)C)cc2)C[C@H](C)O1` [Embodiment 146], the IC50 is 0.5 to 1 µM.
Same read-out and setting: the result for `COC(=O)c1c(-c2ccc(N3C[C@@H](C)O[C@@H](C)C3)cc2)cnc2c(-c3ccc(C#N)cc3)cccc12` [Embodiment 128, methyl 8-(4-cyanophenyl)-3-(4-((2S,6R)-2,6-dimethylmorpholino)phenyl)quinoline-4-carboxylate] reads 0.5 to 1 µM.
The same measure, in the same setting: the result for `COc1c(-c2ccc(N3C[C@@H](C)N(C(=O)c4ccccc4)[C@@H](C)C3)cc2)cnc2c(-c3ccc(C#N)cc3)cccc12` [Embodiment 181] reads ≤ 0.05 µM.
